Assay results as given in paper PMC8403366, “Functional significance of gain-of-function H19 lncRNA in skeletal muscle differentiation and anti-obesity effects” (Genome Medicine, 2021).

What was measured:
[1] = tested on: iPSC-SkMC; assay: Utrophin immunofluorescence in iPSC-SkMC; type: cell-based, human; conditions: vs AGR-Scr, n = 5
Experimental: For myogenic differentiation, iPSCs were differentiated into skeletal muscle cells using Skeletal Muscle Differentiation Kit (Genea Biocells) according to the manufacturer’s protocol. Briefly, iPSCs were plated onto a collagen I coated plate and maintained for 6–10 days in Skeletal Muscle Induction Medium (Genea Biocells) until confluent. Dissociated myogenic precursors were then plated on a collagen I coated plate and cultured in Skeletal Myoblast Medium (Genea Biocells) for 6–8 days. When confluent, cells were maintained in Myotube Medium or Myotube Fusion Medium (Genea Biocells). Cryopreserved stocks of myoblasts Genea002 were obtained from Genea Biocells. […]
Skeletal muscles were collected and fixed in 10% Neutral Buffered Formalin at 4 °C for 1 h, followed by 10% sucrose/PBS overnight and then 18% sucrose/PBS overnight at 4 °C before being frozen embedded and sectioned. […] Muscle cross-sectional area and fiber numbers were quantified by ImageJ. […] The quantification of IF staining density was performed by Image-pro plus 6.0 (Media Cybernetics) and calculated based on the average staining intensity and the percentage of positively stained cells. To quantify myotube fusion, fusion index was calculated by dividing the number of nuclei in MHC-positive myotubes with ≥ 3 nuclei by the total number of nuclei analyzed in a field.

[2] = tested on: WT C57BL/6 J mice; assay: Muscle and fat weights and body composition of treated WT mice; type: in vivo, mouse; conditions: 1 mg/kg i.p. every 3 days, 12 weeks
Experimental: (§1) To determine the effects of H19-Rgof with a skeletal muscle enrichment peptide agrin (AGR-H19-Rgof) on WT C57BL/6 J or Lep^Ob/Ob mice, AGR-tagged oligonucleotides were used. The synthesis and sequence information of AGR-tagged RNA oligonucleotides are described in “Synthesis of H19-Rgof mimics, AGR-H19-Rgof mimics, and Pharmacokinetics (PK) studies.” AGR-Scr (conjugated to scramble oligonucleotides), H19-Rgof, or AGR-H19-Rgof mimics were injected at a dose of 1 mg/kg intraperitoneally into 3-week-old male and female mice. For AGR-H19-Rgof treatment in HFD (Cat # D12492, Research Diets, Inc.)-fed mice, male C57BL/6 J mice were fed with a HFD starting at 6 weeks of age. The AGR-H19-Rgof and AGR-Scr mimics were injected at a dose of 0.5 or 1 mg/kg intraperitoneally every other day starting 2 weeks after the initiation of HFD feeding. Body weight was measured weekly. The general health condition, grooming, and behavior of all animals were monitored daily, and injection sites were checked for signs of redness or edema.
(§2) Unless otherwise indicated, mice were fasted for 4–6 h, anesthetized with isoflurane, and sacrificed by heart puncture. Tissues were dissected, weighed, and either dipped in liquid nitrogen or fixed for immunohistochemistry analysis. Individual muscle was dissected on one side of the body and weighed. Adipose tissues including white adipose tissue (WAT), visceral adipose tissue (VAT), and brown adipose tissue (BAT) were collected and weighed.
(§3) Whole-body composition parameters were measured in male and female mice fed with either chow or HFD by Faxitron Specimen Radiography System (Faxitron X-Ray Corp.) to precisely measure total body fat and lean mass. Mice were housed in the Oxymax/CLAMS metabolic cage system (Columbus Instruments) for 4 days with ad libitum access to food and water. Volume of oxygen uptake (VO2) and exhaled carbon dioxide (VCO2), respiratory exchange ratio (RER), and activity were measured using the Oxymax system. RER is determined by dividing VCO2 produced by VO2 consumed.

[3] = tested on: C57BL/6 J mice; assay: Forelimb grip strength test; type: in vivo, mouse; conditions: vs AGR-Scr
Experimental: A grip strength meter (Columbus Instruments) was used to measure the forelimb grip strength as previously reported. The grid was attached to a force transducer to measure the maximum force applied by the mouse on the grid during the pull. The body weight of the mice was recorded prior to the test and the units of force were calculated in grams-of-force.

[4] = tested on: C57BL/6 J mice; assay: Oxymax/CLAMS metabolic cage study; type: in vivo, mouse; conditions: n = 4
Experimental: as §3

[5] = tested on: C57BL/6 J mice on a HFD; assay: HFD-induced obesity model: body, muscle and fat weights, body composition; type: in vivo, mouse; conditions: HFD-fed male mice; for body weight: n = 10
Experimental: as §1, §2, §3

[6] = tested on: C57BL/6 J mice; assay: Liver Oil Red O / H&E staining and WAT adipocyte size; type: in vivo, mouse
Experimental: H&E staining was performed in paraffin-embedded livers to visualize the pattern of lipid accumulation and inflammatory status. Lipid droplet accumulation in the liver was visualized using Oil Red O (O0625, Sigma) staining of frozen liver sections prepared in an optimum cutting temperature (O.C.T.) compound (4585, Fisher Scientific). Histopathology images were acquired with a light microscope (Olympus). Adipocyte size (from WAT) was determined with ImageJ software. Sections from five animals per group were used and at least 500 adipocytes per animal were measured from multiple fields.

[7] = tested on: C57BL/6 J mice; assay: Blood analyses (serum lipids, hormones, ALT, AST)
Experimental: Whole blood was collected by tail bleeding from un-anesthetized mice or cardiac puncture from mice under deep terminal anesthesia. Mice have been fasted for 4–6 h before blood collection. Total cholesterol (TC) and triglycerides (TG) were determined by enzymatic assays using commercial kits (BioAssay Systems). Alanine aminotransferase (ALT) and aspartate aminotransferase (AST) levels were measured using Alanine Transaminase Colorimetric Activity Assay Kit (700260, Cayman Chemical) and EnzyChrom Aspartate Transaminase Assay Kit (EASTR-100, BioAssay Systems). Serum levels of leptin (ELM-Leptin-1, RayBiotech), IGF1 (RAB0229, Sigma), IGF2 (RAB0231, Sigma), insulin (90080, Crystal Chem), and testosterone (KGE010, R&D) were measured by ELISA assay according to the manufacturer’s instructions.

## N-terminal-ELTNEIPAELTNEIPA-Linker-5'-[2’-F-C][2’-F-U][2’-F-C][2’-F-U][2’-F-U][2’-F-U][2’-F-A][2’-F-U][2’-F-U][2’-F-U][2’-F-C][2’-F-U][2’-F-G][2’-F-A][2’-F-G][2’-F-C][2’-F-U][2’-F-U][2’-F-U][2’-F-C][2’-F-C][2’-F-U][2’-F-A][2’-F-U][2’-F-C][2’-F-U][2’-F-U][2’-F-U][2’-F-C][2’-F-C]-3' [AGR-H19-Rgof]
[1]
  utrophin protein status: elevated
[2]; vs AGR-Scr
  body weight (body composition analysis): increased body weight
  fat percentage (body composition analysis): reduced
  fat weight (body composition analysis): reduced
  lean weight (body composition analysis): increased
[2]; vs AGR-Scr or H19-Rgof
  fat weight (BAT, WAT, VAT): reduced fat weight
  muscle weight: increased muscle weight
[3]; HFD-fed mice, n = 5
  force output, forelimb grip strength test: increased force output
[3]; WT male and female mice, n = 8
  forelimb grip strength, average force: increased average force
[4]; HFD-fed male mice, vs AGR-Scr
  overall food intake: similar
[4]; HFD-fed mice, CLAMS
  energy expenditure: elevated
[4]; HFD-fed mice, CLAMS, vs AGR-Scr
  total activity: similar
[4]; WT male mice on chow, CLAMS, vs control
  activity per day/night: not significantly altered
[4]; WT male mice on chow, vs control
  total food intake: not significantly altered
[4]; WT mice on chow, CLAMS, vs AGR-Scr
  respiratory exchange ratio (RER): elevated
[5]; 0.5 mg/kg i.p. every other day
  body weight: significantly reduced
[5]; 1 mg/kg i.p. every other day
  body weight: significantly reduced
[5]; vs AGR-Scr, n = 5
  fat percentage (body composition): reduced
  fat weight (body composition): reduced
  lean weight (body composition): increased
[5]; vs AGR-Scr, n = 10, 9
  fat mass: reduced
  skeletal muscle mass: increased
[6]; HFD-fed mice, H&E and Oil Red O, liver weight
  fatty acid deposition in the liver and WAT: significantly reduced
[6]; WT male mice on chow, H&E, vs AGR-Scr, n = 5
  adipocyte size in WAT: reduced
[6]; WT male mice on chow, Oil Red O, vs AGR-Scr, n = 8
  fatty acid accumulation in the liver: reduced
[7]; HFD-fed male mice, n = 10, 7
  serum triglyceride concentrations: reduced
[7]; HFD-fed male mice, serum
  IGF1 concentration: unaltered
  IGF2 concentration: unaltered
[7]; HFD-fed mice, n = 10, 9
  total cholesterol: reduced
[7]; HFD-fed mice, serum, n = 7, 7
  leptin: reduced
[7]; WT mice on chow, serum, vs AGR-Scr, n = 5
  total cholesterol: reduced
[7]; WT mice on chow, vs AGR-Scr, n = 7
  serum triglyceride concentrations: reduced
